Assay results reported in patent publication US11559497B2 (Guangzhou Dazhou Biomedicine Ltd., priority 2020, dated 2023).

Legend:
[1] = Phase 1 clinical study: plasma pharmacokinetics after ketamine transdermal patch; conditions: for AUC: AUCall; for AUC(0-inf): AUCinf; for plasma concentration: 28 mg dose
Protocol: Enrollment was planned to achieve participation of up to 14 adult subjects with MDD in the 3 stages of the protocol. Subjects were to be screened within 4 weeks of enrollment. Eligible subjects who provided written consent were to be enrolled into Stage 1 of the study. In Stage 1 of the study, subjects were to receive the low-dose transdermal patch. The amount of residual drug was to be measured and PK analysis conducted for each subject to inform the subsequent dosing. In Stage 2, after a 2 to 4 week washout period, a placebo patch was to be administered. A “deception” protocol was used in order to ensure the subjects remained blinded to the treatment. Placebo administration was followed by a 1 week washout period, after which subjects were to receive the high-dose transdermal patch in Stage 3. The overall study duration from screening until the end of Stage 3 was approximately 60 days, including both inpatient and outpatient portions of the study. The general study design is illustrated in FIG. 3.
The patch was predicted to deliver systemically approximately 20 mg.
For Stage 1, blood samples were collected pre-patch application, and at 2, 6, 12, 24, 28, 32, 48, 96, and 168 hours post-patch application.
Blood samples were collected in tubes containing sodium heparin and stored on ice or room temperature until centrifuged under refrigeration or room temperature for at least 10 minutes at 3,000 revolutions per minute. After centrifugation, plasma was removed, divided into 2 aliquots of approximately 0.6 mL each, frozen, and stored at or below −20° C. Blood was processed to plasma and frozen within 1 hour of collection. Processed frozen plasma samples were transferred on dry ice to the analytical laboratory and were stored at or below −20° C. until bioanalysis was performed.
A non-compartmental analysis (NCA) was used to calculate PK parameters using Phoenix® WinNonlin® 6.4 or later (Certara, USA).

[2] = Reported human pharmacokinetics of ketamine by IV infusion, oral or intranasal route; conditions: 40-min IV infusion of 35 mg of ketamine
Text: There has been very limited data on monitoring HNK pharmacokinetics in humans in a robust approach. […] Also HNK was shown preclinically to have lower potential of AEs.

[3] = Prediction of delivered dose and human PK from in vitro permeability and PK linearity; conditions: predicted
NMDA receptor = conditions: in vitro; Shimoyama et al., 1999; cited from earlier work

Compound: NC1(c2ccccc2Cl)CCCCC1=O (stereo not drawn) [Norketamine, norketamine]
- Extrap ([1]; Stage 1, Mean): 12%
- Extrap ([1]; Stage 1, Median): 11%
- Extrap ([1]; Stage 3, Mean): 7%
- Extrap ([1]; Stage 3, Median): 7%
- AUC ([1]; human, plasma, other: transdermal patch, 20 mg, Stage 1 (60 cm^2 patch, 24 h, low-dose), Mean): 377 ng·h/mL
- AUC ([1]; human, plasma, other: transdermal patch, 20 mg, Stage 1 (60 cm^2 patch, 24 h, low-dose), Median): 328 ng·h/mL
- AUC(0-inf) ([1]; human, plasma, other: transdermal patch, 20 mg, Stage 1, Mean): 420 ng·h/mL
- AUC(0-inf) ([1]; human, plasma, other: transdermal patch, 20 mg, Stage 1, Median): 367 ng·h/mL
- Cmax ([1]; human, plasma, other: transdermal patch, 20 mg, Cmax, Stage 1, Mean): 11.1 ng/mL
- Cmax ([1]; human, plasma, other: transdermal patch, 20 mg, Cmax, Stage 1, Median): 9.85 ng/mL
- half-life ([1]; human, plasma, other: transdermal patch, 20 mg, T1/2, Stage 1, Mean): 19.4 h
- half-life ([1]; human, plasma, other: transdermal patch, 20 mg, T1/2, Stage 1, Median): 21 h
- Tmax ([1]; human, plasma, other: transdermal patch, 20 mg, Tmax, Stage 1, Mean): 28.4 h
- Tmax ([1]; human, plasma, other: transdermal patch, 20 mg, Tmax, Stage 1, Median): 28 h
- AUC ([1]; human, plasma, other: transdermal patch, 40 mg, Stage 3 (20 and 60 cm^2 patches, high-dose), Mean): 486 ng·h/mL
- AUC ([1]; human, plasma, other: transdermal patch, 40 mg, Stage 3 (20 and 60 cm^2 patches, high-dose), Median): 387 ng·h/mL
- AUC(0-inf) ([1]; human, plasma, other: transdermal patch, 40 mg, Stage 3, Mean): 624 ng·h/mL
- AUC(0-inf) ([1]; human, plasma, other: transdermal patch, 40 mg, Stage 3, Median): 500 ng·h/mL
- Cmax ([1]; human, plasma, other: transdermal patch, 40 mg, Cmax, Stage 3, Mean): 13.4 ng/mL
- Cmax ([1]; human, plasma, other: transdermal patch, 40 mg, Cmax, Stage 3, Median): 10.3 ng/mL
- half-life ([1]; human, plasma, other: transdermal patch, 40 mg, T1/2, Stage 3, Mean): 17.9 h
- half-life ([1]; human, plasma, other: transdermal patch, 40 mg, T1/2, Stage 3, Median): 19.2 h
- Tmax ([1]; human, plasma, other: transdermal patch, 40 mg, Tmax, Stage 3, Mean): 31.1 h
- Tmax ([1]; human, plasma, other: transdermal patch, 40 mg, Tmax, Stage 3, Median): 28 h
- ratio of AUC of NK/Ketamine ([1]; tested ketamine patch): 1.40
- ratio of Cmax of NK/ketamine ([1]; tested ketamine patch): 1.08
- ratio of AUC of NK/Ketamine ([2]; digitized literature data): 0.989
- ratio of Cmax of NK/ketamine ([2]; digitized literature data): about 0.362

Compound: NC1(c2ccccc2Cl)CCCC(O)C1=O (stereo not drawn) [Hydroxynorketamine, hydroxynorketamine]
- Cmax resulting from about 100 mg dose by ketamine transdermal delivery device [3]: around 30 ng/mL
- plasma concentration ([1]; 48 hours post application of tested ketamine patch): about 10 ng/ml
- plasma concentration ([1]; 72 hours post application of tested ketamine patch): about 6 ng/ml
- AUCall ([1]; Stage 1 (60 cm^2 patch, 24 h, low-dose), Mean): 438 ng·h/mL
- AUCall ([1]; Stage 1 (60 cm^2 patch, 24 h, low-dose), Median): 364 ng·h/mL
- AUCinf ([1]; Stage 1, Mean): 666 ng·h/mL
- Cmax ([1]; Stage 1, Mean): 12.3 ng/mL
- Extrap ([1]; Stage 1, Mean): 10%
- T1/2 ([1]; Stage 1, Mean): 19.3 h
- Tmax ([1]; Stage 1, Mean): 33.0 h
- AUCinf ([1]; Stage 1, Median): 573 ng·h/mL
- Cmax ([1]; Stage 1, Median): 12.6 ng/mL
- Extrap ([1]; Stage 1, Median): 6%
- T1/2 ([1]; Stage 1, Median): 17.9 h
- Tmax ([1]; Stage 1, Median): 32.0 h
- AUCall ([1]; Stage 3 (20 and 60 cm^2 patches, high-dose), Mean): 549 ng·h/mL
- AUCall ([1]; Stage 3 (20 and 60 cm^2 patches, high-dose), Median): 488 ng·h/mL
- AUCinf ([1]; Stage 3, Mean): 839 ng·h/mL
- Cmax ([1]; Stage 3, Mean): 15.7 ng/mL
- Extrap ([1]; Stage 3, Mean): 15%
- T1/2 ([1]; Stage 3, Mean): 20.2 h
- Tmax ([1]; Stage 3, Mean): 33.5 h
- AUCinf ([1]; Stage 3, Median): 660 ng·h/mL
- Cmax ([1]; Stage 3, Median): 12.8 ng/mL
- Extrap ([1]; Stage 3, Median): 10%
- T1/2 ([1]; Stage 3, Median): 19.5 h
- Tmax ([1]; Stage 3, Median): 29.9 h
- ratio of AUC of HNK/Ketamine ([1]; tested ketamine patch): 2.23
- ratio of Cmax of HNK/ketamine ([1]; tested ketamine patch): 1.19
- ratio of AUC of HNK/Ketamine ([2]; MDD patients, digitized from Zarate et al.): 0.522
- ratio of Cmax of HNK/ketamine ([2]; digitized from Zarate et al.): about 0.113

Compound: CN[C@]1(c2ccccc2Cl)CCCCC1=O [S-ketamine]
- greater affinity than R-ketamine for NMDA receptor binding (NMDA receptor): ~4 fold
